Legend:
[1] = tested on: small flower umbrella sedge; experiment: Test B flooded paddy test; assay type: in vivo, Cyperus difformis; conditions: 1000 g ai/ha, scale 0 to 100 (0 no effect, 100 complete control)
Summary of the method: (§1)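 After treating 2-leaf paddy plants or 2–18 cm postemergence plants (1 to 4 leaves) with formulated chemical, researchers kept them in a greenhouse for 13–15 days. Effects were judged visually versus controls: 0 indicates none, 100 total control.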

[2] = tested on: cocklebur; experiment: Test B pre-/postemergence herbicide test; assay type: in vivo, Xanthium strumarium
Summary of the method: (§2)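 Flooded paddy rice and barnyardgrass were treated at the 2-leaf stage; upland plantings received compound either on sown seed or on 1- to 4-leaf seedlings. All were kept 13–15 days in a greenhouse and scored visually, 0–100, relative to untreated plants.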

[3] = tested on: wheat; experiment: Test B postemergence herbicide test; assay type: in vivo, Triticum aestivum; set-up: key to Wheat plant response rating: 0 = no effect, 100 = complete control
Summary of the method: as §1

[4] = tested on: barnyardgrass; experiment: Test B pre-/postemergence herbicide test; assay type: in vivo, Echinochloa crus-galli
Summary of the method: as §2

[5] = tested on: rice; experiment: Test B flooded paddy test; assay type: in vivo, Oryza sativa; conditions: 1000 g ai/ha, scale 0 to 100 (0 no effect, 100 complete control)
Summary of the method: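 Treated at 2-leaf (paddy) or 1–4-leaf, 2–18 cm (postemergence); greenhouse 13–15 d; visual score vs control, 0 none to 100 complete control; dash = not tested.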

[6] = tested on: giant foxtail; experiment: Test B pre-/postemergence herbicide test; assay type: in vivo, Setaria faberi
Summary of the method: (§3)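 Herbicidal effect was judged by eye on a 0–100 scale after plants stood 13 to 15 days in the greenhouse following pre- or postemergence treatment with surfactant-containing formulations.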

[7] = tested on: large crabgrass; experiment: Test B pre-/postemergence herbicide test; assay type: in vivo, Digitaria sanguinalis
Summary of the method: as §3

[8] = tested on: corn; experiment: Test B pre-/postemergence herbicide test; assay type: in vivo, Zea mays
Summary of the method: as §3

[9] = tested on: wild oat; experiment: Test B postemergence herbicide test; assay type: in vivo, Avena fatua
Summary of the method: as §1

[10] = tested on: Surinam grass; experiment: Test B pre-/postemergence herbicide test; assay type: in vivo, Urochloa decumbens
Summary of the method: as §3

[11] = tested on: pigweed; experiment: Test B pre-/postemergence herbicide test; assay type: in vivo, Amaranthus retroflexus
Summary of the method: as §3

[12] = tested on: barnyardgrass; experiment: Test B flooded paddy test; assay type: in vivo, Echinochloa crus-galli; conditions: 1000 g ai/ha, scale 0 to 100 (0 no effect, 100 complete control)
Summary of the method: as §1

[13] = tested on: velvetleaf; experiment: Test B pre-/postemergence herbicide test; assay type: in vivo, Abutilon theophrasti
Summary of the method: as §3

[14] = tested on: lambsquarters; experiment: Test B pre-/postemergence herbicide test; assay type: in vivo, Chenopodium album
Summary of the method: as §3

[15] = tested on: morningglory; experiment: Test B pre-/postemergence herbicide test; assay type: in vivo, Ipomoea coccinea
Summary of the method: as §2

[16] = 125 g ai/ha; 0 = no effect, 100 = complete control; preemergence
[17] = 500 g ai/ha; visual rating, 0 = no effect, 100 = complete control; preemergence
[18] = postemergence, 125 g ai/ha; visual rating, scale 0 (no effect) to 100 (complete control)
[19] = postemergence, 500 g ai/ha; scale 0 to 100, 0 is no effect, 100 is complete control
[20] = 500 g ai/ha; visual rating 0-100, 0 no effect, 100 complete control; preemergence
[21] = postemergence, 500 g ai/ha; visual rating, scale 0 (no effect) to 100 (complete control)
[22] = 125 g ai/ha; visual rating, scale 0 (no effect) to 100 (complete control); postemergence

C=CCN(C)C(=O)c1cccc(NC(=O)c2cc(C(C)(C)C)nn2CC)c1 [Compound 285]
Sedge, Umbrella plant response rating [1]: 90 | Cocklebur plant response rating (0 to 100 scale) [2, 16]: 0 | Plant response rating, Cocklebur [2, 17]: 0 | Cocklebur plant response rating [2, 18]: 10 | Cocklebur plant response rating [2, 19]: 30 | Wheat plant response rating [3, 18]: 30 | Wheat plant response rating [3, 19]: 40 | Barnyardgrass plant response rating (0 to 100 scale) [4, 16]: 30 | Plant response rating, Barnyardgrass [4, 17]: 90 | Barnyardgrass plant response rating [4, 18]: 0 | Barnyardgrass plant response rating [4, 19]: 10 | Rice plant response rating [5]: 80 | Foxtail, Giant plant response rating (0 to 100 scale) [6, 16]: 10 | Plant response rating, Foxtail, Giant [6, 17]: 80 | Foxtail, Giant plant response rating [6, 18]: 30 | Foxtail, Giant plant response rating [6, 19]: 50 | Crabgrass, Large plant response rating (0 to 100 scale) [7, 16]: 20 | Plant response rating, Crabgrass, Large [7, 17]: 70 | Crabgrass, Large plant response rating [7, 18]: 0 | Crabgrass, Large plant response rating [7, 19]: 20 | Corn plant response rating (0 to 100 scale) [8, 16]: 0 | Plant response rating, Corn [8, 17]: 40 | Corn plant response rating [8, 18]: 10 | Corn plant response rating [8, 19]: 10 | Oat, Wild plant response rating [9, 18]: 40 | Oat, Wild plant response rating [9, 19]: 50 | Surinam Grass plant response rating (0 to 100 scale) [10, 16]: 10 | Plant response rating, Surinam Grass [10, 17]: 70 | Surinam Grass plant response rating [10, 18]: 10 | Surinam Grass plant response rating [10, 19]: 30 | Pigweed plant response rating (0 to 100 scale) [11, 16]: 100 | Plant response rating, Pigweed [11, 17]: 100 | Pigweed plant response rating [11, 18]: 70 | Pigweed plant response rating [11, 19]: 80 | Barnyardgrass plant response rating [12]: 90 | Velvetleaf plant response rating (0 to 100 scale) [13, 16]: 30 | Plant response rating, Velvetleaf [13, 17]: 100 | Velvetleaf plant response rating [13, 18]: 10 | Velvetleaf plant response rating [13, 19]: 40 | Lambsquarters plant response rating (0 to 100 scale) [14, 16]: 100 | Plant response rating, Lambsquarters [14, 17]: 100 | Lambsquarters plant response rating [14, 18]: 40 | Lambsquarters plant response rating [14, 19]: 70 | Morningglory plant response rating (0 to 100 scale) [15, 16]: 0 | Plant response rating, Morningglory [15, 17]: 10 | Morningglory plant response rating [15, 18]: 20 | Morningglory plant response rating [15, 19]: 30

C=CCNC(=O)c1cccc(NC(=O)c2sc(C(C)(C)C)nc2CC)c1 [Compound 207]
Sedge, Umbrella plant response rating ([1]; visual rating, 13 to 15 days): 80 | Cocklebur plant response rating (0 to 100 scale) [2, 16]: 10 | Plant response rating, Cocklebur [2, 20]: 20 | Cocklebur plant response rating [2, 18]: 40 | Cocklebur plant response rating [2, 21]: 80 | Wheat plant response rating [3, 18]: 20 | Wheat plant response rating [3, 21]: 20 | Barnyardgrass plant response rating (0 to 100 scale) [4, 16]: 80 | Plant response rating, Barnyardgrass [4, 20]: 90 | Barnyardgrass plant response rating [4, 18]: 20 | Barnyardgrass plant response rating [4, 21]: 20 | Rice plant response rating ([5]; visual rating, 13 to 15 days): 60 | Foxtail, Giant plant response rating (0 to 100 scale) [6, 16]: 50 | Plant response rating, Foxtail, Giant [6, 20]: 90 | Foxtail, Giant plant response rating [6, 18]: 20 | Foxtail, Giant plant response rating [6, 21]: 20 | Crabgrass, Large plant response rating (0 to 100 scale) [7, 16]: 70 | Plant response rating, Crabgrass, Large [7, 20]: 100 | Crabgrass, Large plant response rating [7, 18]: 20 | Crabgrass, Large plant response rating [7, 21]: 20 | Corn plant response rating (0 to 100 scale) [8, 16]: 10 | Plant response rating, Corn [8, 20]: 50 | Corn plant response rating [8, 18]: 20 | Corn plant response rating [8, 21]: 20 | Oat, Wild plant response rating [9, 18]: 20 | Oat, Wild plant response rating [9, 21]: 20 | Surinam Grass plant response rating (0 to 100 scale) [10, 16]: 40 | Plant response rating, Surinam Grass [10, 20]: 60 | Surinam Grass plant response rating [10, 18]: 20 | Surinam Grass plant response rating [10, 21]: 20 | Pigweed plant response rating (0 to 100 scale) [11, 16]: 90 | Plant response rating, Pigweed [11, 20]: 100 | Pigweed plant response rating [11, 18]: 30 | Pigweed plant response rating [11, 21]: 60 | Barnyardgrass plant response rating ([12]; visual rating, 13 to 15 days): 80 | Velvetleaf plant response rating (0 to 100 scale) [13, 16]: 20 | Plant response rating, Velvetleaf [13, 20]: 60 | Velvetleaf plant response rating [13, 18]: 20 | Velvetleaf plant response rating [13, 21]: 30 | Lambsquarters plant response rating (0 to 100 scale) [14, 16]: 80 | Plant response rating, Lambsquarters [14, 20]: 100 | Lambsquarters plant response rating [14, 18]: 50 | Lambsquarters plant response rating [14, 21]: 80 | Morningglory plant response rating (0 to 100 scale) [15, 16]: 20 | Plant response rating, Morningglory [15, 20]: 40 | Morningglory plant response rating [15, 18]: 10 | Morningglory plant response rating [15, 21]: 20

CCc1nn(C(C)(C)C)cc1C(=O)Nc1cc(C(=O)N(C)C)ccn1 [Compound 293]
Sedge, Umbrella plant response rating [1]: 80 | Cocklebur plant response rating (0 to 100 scale) [2, 16]: 60 | Cocklebur plant response rating [2, 22]: 20 | Plant response rating, Cocklebur [2, 17]: 90 | Cocklebur plant response rating [2, 19]: 30 | Wheat plant response rating [3, 22]: 20 | Wheat plant response rating [3, 19]: 30 | Barnyardgrass plant response rating (0 to 100 scale) [4, 16]: 90 | Barnyardgrass plant response rating [4, 22]: 0 | Plant response rating, Barnyardgrass [4, 17]: 100 | Barnyardgrass plant response rating [4, 19]: 10 | Rice plant response rating [5]: 90 | Foxtail, Giant plant response rating (0 to 100 scale) [6, 16]: 60 | Foxtail, Giant plant response rating [6, 22]: 20 | Plant response rating, Foxtail, Giant [6, 17]: 100 | Foxtail, Giant plant response rating [6, 19]: 30 | Crabgrass, Large plant response rating (0 to 100 scale) [7, 16]: 100 | Crabgrass, Large plant response rating [7, 22]: 0 | Plant response rating, Crabgrass, Large [7, 17]: 100 | Crabgrass, Large plant response rating [7, 19]: 20 | Corn plant response rating (0 to 100 scale) [8, 16]: 70 | Corn plant response rating [8, 22]: 10 | Plant response rating, Corn [8, 17]: 100 | Corn plant response rating [8, 19]: 30 | Oat, Wild plant response rating [9, 22]: 30 | Oat, Wild plant response rating [9, 19]: 50 | Surinam Grass plant response rating (0 to 100 scale) [10, 16]: 90 | Surinam Grass plant response rating [10, 22]: 10 | Plant response rating, Surinam Grass [10, 17]: 100 | Surinam Grass plant response rating [10, 19]: 20 | Pigweed plant response rating (0 to 100 scale) [11, 16]: 10 | Pigweed plant response rating [11, 22]: 10 | Plant response rating, Pigweed [11, 17]: 100 | Pigweed plant response rating [11, 19]: 40 | Barnyardgrass plant response rating [12]: 90 | Velvetleaf plant response rating [13, 22]: 10 | Plant response rating, Velvetleaf [13, 17]: 100 | Velvetleaf plant response rating [13, 19]: 30 | Lambsquarters plant response rating (0 to 100 scale) [14, 16]: 80 | Lambsquarters plant response rating [14, 22]: 50 | Plant response rating, Lambsquarters [14, 17]: 100 | Lambsquarters plant response rating [14, 19]: 70 | Morningglory plant response rating (0 to 100 scale) [15, 16]: 40 | Morningglory plant response rating [15, 22]: 30 | Plant response rating, Morningglory [15, 17]: 100 | Morningglory plant response rating [15, 19]: 70
